Test results as given in ChEMBL document CHEMBL2086309, “Discovery of liver selective non-steroidal glucocorticoid receptor antagonist as novel antidiabetic agents” (Bioorg Med Chem Lett, 2012).
Blank lines part the entries; values can stand above or below the compound they belong to.

Columns and labels:
Glucocorticoid receptor [1] = molecular target: T1, Glucocorticoid receptor (Homo sapiens, UniProt P04150); assay: Displacement of [3H]dexamethasone from human glucocorticoid receptor expressed in baculovirus infected Sf9 cells after 16-18 hrs by beta counting
T1 sequence (P04150 whole entry): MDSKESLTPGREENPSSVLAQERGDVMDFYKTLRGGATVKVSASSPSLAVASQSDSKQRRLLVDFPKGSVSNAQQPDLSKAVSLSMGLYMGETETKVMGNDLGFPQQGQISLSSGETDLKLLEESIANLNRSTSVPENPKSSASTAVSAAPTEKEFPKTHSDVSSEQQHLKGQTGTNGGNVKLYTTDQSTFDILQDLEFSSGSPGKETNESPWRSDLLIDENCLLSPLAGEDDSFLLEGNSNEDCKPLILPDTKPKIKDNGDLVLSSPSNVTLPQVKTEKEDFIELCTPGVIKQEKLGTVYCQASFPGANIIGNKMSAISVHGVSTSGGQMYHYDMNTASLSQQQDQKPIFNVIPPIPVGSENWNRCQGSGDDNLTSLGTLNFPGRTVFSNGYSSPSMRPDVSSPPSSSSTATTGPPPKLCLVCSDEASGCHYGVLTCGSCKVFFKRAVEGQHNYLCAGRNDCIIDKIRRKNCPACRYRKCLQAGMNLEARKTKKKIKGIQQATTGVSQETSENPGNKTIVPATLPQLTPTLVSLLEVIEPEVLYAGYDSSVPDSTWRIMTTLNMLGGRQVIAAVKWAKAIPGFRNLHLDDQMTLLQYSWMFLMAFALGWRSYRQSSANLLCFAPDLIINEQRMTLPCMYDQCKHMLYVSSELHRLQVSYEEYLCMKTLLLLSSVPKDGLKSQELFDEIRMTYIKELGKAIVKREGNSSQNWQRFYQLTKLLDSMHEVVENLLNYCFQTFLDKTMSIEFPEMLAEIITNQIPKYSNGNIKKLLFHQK

Glucocorticoid receptor [2] = molecular target: T2, Glucocorticoid receptor (Rattus norvegicus, UniProt P06536); assay: Antagonist activity at glucocorticoid receptor in rat hepatocytes assessed as inhibition of dexamethasone-induced […] expression incubated for 30 mins prior to dexamethasone-induction measured after 4 hrs by reporter gene assay; format: functional, cell-based, Hepatocyte
T2 sequence (P06536 whole entry): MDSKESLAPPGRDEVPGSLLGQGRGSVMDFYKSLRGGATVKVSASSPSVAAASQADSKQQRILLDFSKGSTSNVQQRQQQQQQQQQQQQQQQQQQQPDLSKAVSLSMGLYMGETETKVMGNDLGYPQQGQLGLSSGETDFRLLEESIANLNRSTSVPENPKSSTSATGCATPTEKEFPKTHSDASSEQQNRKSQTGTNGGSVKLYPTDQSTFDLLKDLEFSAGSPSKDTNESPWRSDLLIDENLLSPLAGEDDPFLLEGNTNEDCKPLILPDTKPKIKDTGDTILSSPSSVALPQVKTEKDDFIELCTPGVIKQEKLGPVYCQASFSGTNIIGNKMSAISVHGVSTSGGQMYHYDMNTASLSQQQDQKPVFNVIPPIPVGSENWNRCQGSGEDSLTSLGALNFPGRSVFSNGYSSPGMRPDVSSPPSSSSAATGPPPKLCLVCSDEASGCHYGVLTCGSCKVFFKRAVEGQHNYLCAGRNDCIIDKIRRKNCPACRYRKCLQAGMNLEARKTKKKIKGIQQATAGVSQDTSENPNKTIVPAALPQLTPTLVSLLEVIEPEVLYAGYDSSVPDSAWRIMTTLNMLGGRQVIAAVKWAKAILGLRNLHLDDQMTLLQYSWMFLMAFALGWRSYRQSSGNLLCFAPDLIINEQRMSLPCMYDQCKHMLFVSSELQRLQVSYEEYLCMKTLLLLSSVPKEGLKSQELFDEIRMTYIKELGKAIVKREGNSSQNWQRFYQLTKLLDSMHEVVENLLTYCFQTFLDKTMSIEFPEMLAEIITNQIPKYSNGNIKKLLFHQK

Glucocorticoid receptor [3] = molecular target: T2, Glucocorticoid receptor; assay: Antagonist activity at glucocorticoid receptor in rat H4IIE cells assessed as inhibition of dexamethasone-induced […] expression after 24 hrs by reporter gene assay; format: functional, cell-based
Glucocorticoid receptor [4] = molecular target: T1, Glucocorticoid receptor; assay: Displacement of [3H]dexamethasone from human glucocorticoid receptor expressed in baculovirus infected Sf9 cells after overnight incubation by scintillation counting
Glucocorticoid receptor [5] = molecular target: T1, Glucocorticoid receptor; assay: Antagonist activity at human glucocorticoid receptor expressed in GRAF cells assessed as inhibition of dexamethasone-induced alkaline phosphatase expression after 48 hrs by reporter gene assay; format: functional, cell-based
Glucocorticoid receptor [6] = molecular target: T1, Glucocorticoid receptor; assay: Antagonist activity at human glucocorticoid receptor expressed in CHOK1 cells assessed as inhibition of dexamethasone-induced alkaline phosphatase expression after 46 hrs by reporter gene assay; format: functional, cell-based, CHO-K1
[7] = Cmax in Sprague-Dawley rat at 20 mg/kg, po administered as single dose; format: ADME, organism-based; set-up: dose 20 mg/kg, route oral; conditions: in vivo
Mus musculus [8] = assay: Hepatotoxicity in ob/ob mouse assessed as ALT level at 10 mg/kg, po administered BID for 28 days measured st 16 hrs post-last dose (reference value: 259.4+/-18.6 U/L); format: toxicity, organism-based; set-up: dose 10 mg/kg, route oral; conditions: in vivo
Rattus norvegicus [9] = assay: Activation of hyphalamic-pituitary-adrenal axis in Sprague-Dawley rat assessed as change in corticosterone level at 100 mg/kg, po administered as single dose measured at 2 hrs relative to vehicle-treated control; format: organism-based; set-up: dose 100 mg/kg, route oral; conditions: in vivo
Mus musculus [10] = assay: Antidiabetic activity in ob/ob mouse assessed as insulin level at 10 mg/kg, po administered BID for 28 days measured 16 hrs post-last dose by ELISA (reference value: 13.6+/-2.3 ng/mL); format: functional
Mus musculus [11] = assay: Antihyperlipidemic activity in ob/ob mouse assessed as cholesterol level at 10 mg/kg, po administered BID for 28 days measured 16 hrs post-last dose (reference value: 331.2+/-17.9 mg/dL); format: functional
Mus musculus [12] = assay: Antihyperlipidemic activity in ob/ob mouse assessed as triglyceride level at 20 mg/kg, po administered BID for 28 days measured 16 hrs post-last dose (reference value: 292.5+/-17.5 mg/dL); format: functional
Mus musculus [13] = assay: Antidiabetic activity in ob/ob mouse assessed as insulin level at 20 mg/kg, po administered BID for 28 days measured 16 hrs post-last dose by ELISA (reference value: 13.6+/-2.3 ng/mL); format: functional
Mus musculus [14] = assay: Hepatotoxicity in ob/ob mouse assessed as AST level at 10 mg/kg, po administered BID for 28 days measured st 16 hrs post-last dose (reference value: 332.2+/-39.1 U/L); format: toxicity, organism-based; set-up: dose 10 mg/kg, route oral; conditions: in vivo
Mus musculus [15] = assay: Antihyperlipidemic activity in ob/ob mouse assessed as triglyceride level at 10 mg/kg, po administered BID for 28 days measured 16 hrs post-last dose (reference value: 292.5+/-17.5 mg/dL); format: functional
Mus musculus [16] = assay: Antidiabetic activity in po dosed ob/ob mouse assessed as decrease in post-prandial blood glucose level administered BID for 28 days measured 16 hrs post-last dose; format: functional, organism-based
Mus musculus [17] = assay: Antidiabetic activity in ob/ob mouse assessed as Hb1Ac level at 10 mg/kg, po administered BID for 28 days measured 16 hrs post-last dose (reference value: 9.3+/-0.4%); format: functional
[18] = AUC in Sprague-Dawley rat at 20 mg/kg, iv administered as single dose; format: ADME, organism-based; set-up: dose 20 mg/kg, route intravenous; conditions: plasma
Mus musculus [19] = assay: Hepatotoxicity in ob/ob mouse assessed as ALT level at 20 mg/kg, po administered BID for 28 days measured st 16 hrs post-last dose (reference value: 259.4+/-18.6 U/L); format: toxicity, organism-based; set-up: dose 20 mg/kg, route oral; conditions: in vivo
[20] = AUC (0 to infinity) in Sprague-Dawley rat at 20 mg/kg, po administered as single dose; format: ADME, organism-based; set-up: time infinity, dose 20 mg/kg, route oral; conditions: plasma
[21] = Drug uptake in Sprague-Dawley rat liver at 20 mg/kg, po administered as single dose measured at 0.5 hrs; format: ADME, organism-based; set-up: dose 20 mg/kg, route oral; conditions: read-out: Drug uptake
[22] = Ratio of drug uptake in liver to plasma in Sprague-Dawley rat at 20 mg/kg, po administered as single dose; format: ADME, organism-based; set-up: dose 20 mg/kg, route oral
[23] = Oral bioavailability in Sprague-Dawley rat; format: ADME, organism-based; conditions: in vivo
Mus musculus [24] = assay: Antidiabetic activity in ob/ob mouse assessed as decrease in post-prandial blood glucose level at 10 mg/kg, po administered BID for 28 days measured 16 hrs post-last dose relative to vehicle-treated control; format: functional; set-up: scale not given: the % may be the effect or the level left
Rattus norvegicus [25] = assay: Activation of hyphalamic-pituitary-adrenal axis in Sprague-Dawley rat assessed as change in ACTH level at 100 mg/kg, po administered as single dose measured at 2 hrs by ELISA relative to vehicle-treated control; format: organism-based; set-up: dose 100 mg/kg, route oral; conditions: in vivo
Mus musculus [26] = assay: Antidiabetic activity in ob/ob mouse assessed as decrease in post-prandial blood glucose level at 20 mg/kg, po administered BID for 28 days measured 16 hrs post-last dose relative to vehicle-treated control; format: functional; set-up: scale not given: the % may be the effect or the level left
Mus musculus [27] = assay: Hepatotoxicity in ob/ob mouse assessed as AST level at 20 mg/kg, po administered BID for 28 days measured st 16 hrs post-last dose (reference value: 332.2+/-39.1 U/L); format: toxicity, organism-based; set-up: dose 20 mg/kg, route oral; conditions: in vivo
Mus musculus [28] = assay: Antihyperlipidemic activity in ob/ob mouse assessed as free fatty acid level at 20 mg/kg, po administered BID for 28 days measured 16 hrs post-last dose (reference value: 1.96+/-0.09 mEq/L); format: functional
Mus musculus [29] = assay: Toxicity in ob/ob mouse assessed as change in body weight at 20 mg/kg, po administered BID for 28 days (reference value: 11.7+/-1.1 g); format: organism-based; set-up: dose 20 mg/kg, route oral; conditions: in vivo, 672 h
[30] = Tmax in Sprague-Dawley rat at 20 mg/kg, po administered as single dose; format: ADME, organism-based; set-up: dose 20 mg/kg, route oral; conditions: in vivo
Mus musculus [31] = assay: Antidiabetic activity in ob/ob mouse assessed as Hb1Ac level at 20 mg/kg, po administered BID for 28 days measured 16 hrs post-last dose (reference value: 9.3+/-0.4%); format: functional
Mus musculus [32] = assay: Antihyperlipidemic activity in ob/ob mouse assessed as free fatty acid level at 10 mg/kg, po administered BID for 28 days measured 16 hrs post-last dose (reference value: 1.96+/-0.09 mEq/L); format: functional
Mus musculus [33] = assay: Toxicity in ob/ob mouse assessed as change in body weight at 10 mg/kg, po administered BID for 28 days (reference value: 11.7+/-1.1 g); format: organism-based; set-up: dose 10 mg/kg, route oral; conditions: in vivo, 672 h
[34] = Half life in Sprague-Dawley rat at 20 mg/kg, po administered as single dose; format: ADME, organism-based; set-up: dose 20 mg/kg, route oral; conditions: in vivo
Mus musculus [35] = assay: Antihyperlipidemic activity in ob/ob mouse assessed as cholesterol level at 20 mg/kg, po administered BID for 28 days measured 16 hrs post-last dose (reference value: 331.2+/-17.9 mg/dL); format: functional

SMILES: COc1ccccc1Oc1ccc(CN(Cc2cc(F)cc(F)c2)c2c(Br)cc(CC(=O)O)cc2Br)cc1
IC50 (Glucocorticoid receptor [4]): 1260 nM

SMILES: O=C(O)Cc1cc(Br)c(N(Cc2ccc(Oc3ccccc3Br)cc2)Cc2cc(F)cc(F)c2)c(Br)c1
IC50 (Glucocorticoid receptor [2]): > 10000 nM
IC50 (Glucocorticoid receptor [4]): 801 nM
IC50 (Glucocorticoid receptor [5]): 1170 nM

SMILES: COc1ccc(Oc2ccc(CN(Cc3cc(F)cc(F)c3)c3c(Br)cc(CC(=O)O)cc3Br)cc2)c(OC)c1
IC50 (Glucocorticoid receptor [4]): 1600 nM

Now those with a lower IC50 (Glucocorticoid receptor [4]), led by results:

IC50 (Glucocorticoid receptor [1]): 19 nM
IC50 (Glucocorticoid receptor [2]): 2490 nM
IC50 (Glucocorticoid receptor [3]): 2500 nM
IC50 (Glucocorticoid receptor [4]): 20 nM
IC50 (Glucocorticoid receptor [5]): 410 nM
IC50 (Glucocorticoid receptor [6]): 400 nM
SMILES: COc1cc(C(=O)c2cccc(C)c2)c(Oc2c(Br)cc(CC(=O)O)cc2Br)cc1C(C)C

Cmax [7]: 880 ng/mL
IC50 (Glucocorticoid receptor [2]): 900 nM
AUC [18]: 13000 ng·h/mL
AUC(0-inf) [20]: 1390 ng·h/mL
concentration at 0.5 h [21]: 21800 ng/mL
IC50 (Glucocorticoid receptor [4]): 4.5 nM
IC50 (Glucocorticoid receptor [5]): 211 nM
Kp [22]: 24.8
bioavailability [23]: 10.7%
Tmax [30]: 0.51 h
half-life [34]: 5.96 h
SMILES: O=C(O)Cc1cc(Br)c(N(Cc2ccc(Oc3ccc(F)cc3F)cc2)Cc2cc(F)cc(F)c2)c(Br)c1
Activity (Mus musculus [8]): 261 U/L
Activity (Rattus norvegicus [9]): Non-toxic
Activity (Mus musculus [10]): 14.1 ng/mL
Activity (Mus musculus [11]): 266.6 mg/dL
Activity (Mus musculus [12]): 173.5 mg/dL
Activity (Mus musculus [13]): 12.3 ng/mL
Activity (Mus musculus [14]): 345.3 U/L
Activity (Mus musculus [15]): 214.3 mg/dL
Activity (Mus musculus [16]): Dose-dependent effect
Activity (Mus musculus [17]): 6.7%
Activity (Mus musculus [19]): 247.5 U/L
Activity (Mus musculus [24]): 32%
Activity (Rattus norvegicus [25]): Non-toxic
Activity (Mus musculus [26]): 42%
Activity (Mus musculus [27]): 353.2 U/L
Activity (Mus musculus [28]): 1.17 mEq/L
Activity (Mus musculus [29]): 10.9 g
Activity (Mus musculus [31]): 6%
Activity (Mus musculus [32]): 1.32 mEq/L
Activity (Mus musculus [33]): 11.9 g
Activity (Mus musculus [35]): 219.5 mg/dL
